Results from US20230172848A1, “ORAL FILM FOR SAFE ADMINISTRATION OF API” (LABTEC GMBH, priority 2020, published 2023).
Where two headings read alike, the source gives them in different places.

Experiments:
[1] = cited from earlier work
[2] = in vivo; cited from earlier work
[3] = cited from earlier work; for required dose for induction of anesthesia: 1% solution i.v.
[4] = acceptor medium of buffer pH 7.0
Experimental: The dosage unit prepared from formulation F6 were tested for ex-vivo permeation on porcine buccal mucosa in vertical Franz-cells.

Structure (SMILES): CC(C)c1cccc(C(C)C)c1O [propofol, 2,6-diisopropylphenol]
- blood level required for the sedative effect ([1]; Dhir et al., 2016): 1.5 to 2.0 µg/mL
- average blood concentration required for anesthetic effect ([1]; major surgeries): 4.05 ± 1.01 µg/mL
- blood concentration sufficient for anesthetic effect ([1]; minor surgical procedures): 2.97 ± 1.07 µg/mL
- oral bioavailability [2]: very low
- required dose for induction of anesthesia ([3]; adult patients aged less than 55 years): 1.5-2.5 mg/kg body weight
- required dose for induction of anesthesia ([3]; children over 8 years): about 2.5 mg/kg body weight
- rate of administration that maintains the anesthetic effect ([3]; adults under the age of 55): 4-12 mg/kg body weight/h
- rate of administration that maintains the anesthesia ([3]; children over the age of 1 month): 9-15 mg/kg body weight/h
- concentration of saturated solution [4]: about 167.8 μg/ml
